# Read-outs that look alike come from different tables or passages of the source. Starred links: 1 amine or outer side, 2 acyl side, 3 side chain; linkers in the order of their positions; H or OH if unused. Positions of bridges follow the written chain, without caps; N, C: chain ends. Non-standard residues stand in square brackets, D forms with d. Residues, ends and D or L forms follow the SMILES beside them. *: point of attachment. NH(CH2)3NH(O2Oc(DOTA)) = O=C(O)CN1CCN(CC(=O)O)CCN(CC(=O)NCCOCCOCC(=O)NCCCN*)CCN(CC(=O)O)CC1; NH(CH2)3NHDOTA = O=C(O)CN1CCN(CC(=O)O)CCN(CC(=O)NCCCN*)CCN(CC(=O)O)CC1; X3 = O=C(O)CN1CCN(CC(=O)O)CCN(CC(=O)NCCCOCCOCCOCCCN*)CCN(CC(=O)O)CC1; NH(1-deoxy-D-glucityl) = OC[C@@H](O)[C@@H](O)[C@H](O)[C@@H](O)CN*; DOTA = O=C(O)CN1CCN(CC(=O)O)CCN(CC(=O)*)CCN(CC(=O)O)CC1; mXylylene = c1cc(C[*:1])cc(C[*:2])c1; Trx = NC[C@H]1CC[C@H](C(=O)O)CC1; X2 = O=C(CN1CCC(N[*:1])CC1)[*:2]; Suc = O=C(CCC(=O)[*:2])[*:1]; Propanoyl(3-OH) = O=C(CCO)*; Isovaleryl = CC(C)CC(=O)*; hSer = N[C@@H](CCO)C(=O)O; Ac6c = NC1(C(=O)O)CCCCC1; Nle = CCCC[C@H](N)C(=O)O; Dap = NC[C@H](N)C(=O)O
# What was measured:
# [1] = biological target: T1, human carbonic anhydrase IX (hCAIX-Fc) (Homo sapiens, UniProt Q16790); assay: Surface plasmon resonance assay with hCAIX-Fc; type: binding; settings: 25° C.; for t1/2 category (activity): SPR dissociation half-life, hCAIX-Fc; for Kd: SPR, hCAIX-Fc captured, read-out: pKD category (activity) (converted)
# T1 construct: purchased SinoBliological (Sino Biological) 10107-H02H
# [2] = Plasma stability assay, mouse plasma; settings: mouse plasma, 37°C, 24 h
# [3] = biological target: T2, CAIX-expressing human HT-29 colorectal cancer cells (Homo sapiens, UniProt Q16790); assay: FACS binding assay (IC50 determination, competition with tracer 3BP-2776 or 3BP-4149); settings: 4° C., 1 hour, read-out: pIC50 category (activity) (converted)
# T2 construct: CAIX-expressing human HT-29 colorectal cancer cells; host or cells: HT-29 human colorectal cancer cells
# Outline: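 HT-29 cells in FACS buffer (PBS, 1% FCS) at 500.000 cells/ml were exposed to compounds competing with a labelled tracer, with biotinylated compounds detected by 1 μg/mL APC-streptavidin for 30 min on ice. APC/Cy5 median fluorescence was read by flow cytometry and IC50 derived by 4PL fit.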
# [4] = FACS competition on HT-29 cells, Tracer ID 3BP-2776 (10 nM, biotin-labeled)
# [5] = FACS binding assay, HT-29 cells, competition with tracer 3BP-2776 (10 nM, biotin-labeled)
SMILES,t1/2 category (activity) [1],Kd [1],% intact compound remaining (incubation time) [2],"IC50 [3, 4]","IC50 [3, 5]"
CC(C)[C@H](NC(=O)CN1CCC(NC(=O)CN2CCN(CC(=O)O)CCN(CC(=O)O)CCN(CC(=O)O)CC2)CC1)C(=O)N[C@@H](Cc1ccc(O)cc1)C(=O)N[C@H]1CSCc2cccc(c2)CSC[C@@H](C(N)=O)NC(=O)[C@H](CO)NC(=O)[C@H](Cc2c[nH]c3ccccc23)NC(=O)[C@H]([C@@H](C)O)NC(=O)C2(CCCCC2)NC(=O)[C@H](Cc2c[nH]c3ccccc23)NC(=O)[C@H](CC(=O)O)NC(=O)[C@H]2CCCN2C(=O)[C@H](CCC(=O)O)NC1=O [3BP-3584] ({DOTA}-[X2]VYCE[dP]DW[Ac6c]TWSC-NH2; linker 4-13 via mXylylene),B (t1/2 between 5.1 and 15.0 minutes),< 10 nM,>95%,< 10 nM,–
CCCC[C@H](NC(=O)CCC(=O)NCCCOCCOCCOCCCNC(=O)CN1CCN(CC(=O)O)CCN(CC(=O)O)CCN(CC(=O)O)CC1)C(=O)N[C@@H](Cc1ccc(O)cc1)C(=O)N[C@H]1CSCc2cccc(c2)CSC[C@@H](C(N)=O)NC(=O)[C@H](CO)NC(=O)[C@H](Cc2c[nH]c3ccccc23)NC(=O)[C@H]([C@@H](C)O)NC(=O)[C@H](CC(C)C)NC(=O)[C@H](Cc2c[nH]c3ccccc23)NC(=O)[C@H](CC(=O)O)NC(=O)[C@H]2CCCN2C(=O)[C@H](CCC(=O)O)NC1=O [3BP-3870] ({X3-Suc}-[Nle]YCE[dP]DWLTWSC-NH2; linker 3-12 via mXylylene),B (t1/2 between 5.1 and 15.0 minutes),< 10 nM,92%,< 10 nM,–
CC(C)C[C@@H]1NC(=O)[C@H](Cc2c[nH]c3ccccc23)NC(=O)[C@H](CC(=O)O)NC(=O)[C@H]2CCCN2C(=O)[C@H](CCC(=O)O)NC(=O)[C@@H]2CSCc3cccc(c3)CSC[C@@H](C(N)=O)NC(=O)[C@H](CNC(=O)C[C@H](NC(=O)[C@H](CO)NC(=O)CN3CCN(CC(=O)O)CCN(CC(=O)O)CCN(CC(=O)O)CC3)C(=O)N2)NC(=O)[C@H](Cc2c[nH]c3ccccc23)NC(=O)[C@H]([C@@H](C)O)NC1=O [3BP-4257] ({DOTA}-SDCE[dP]DWLTW[Dap]C-NH2; lactam 2-11; linker 3-12 via mXylylene),C (t1/2 between 2.1 and 5.0 minutes),< 10 nM,94%,–,< 10 nM
CC(=O)N[C@H](C(=O)N[C@@H](CCCNC(=N)N)C(=O)N[C@H]1CSCc2cccc(c2)CSC[C@@H](C(N)=O)NC(=O)[C@H](CCC(=O)NCCCNC(=O)COCCOCCNC(=O)CN2CCN(CC(=O)O)CCN(CC(=O)O)CCN(CC(=O)O)CC2)NC(=O)[C@H](Cc2c[nH]c3ccccc23)NC(=O)[C@H]([C@@H](C)O)NC(=O)[C@H](CC(C)C)NC(=O)[C@H](Cc2c[nH]c3ccccc23)NC(=O)[C@H](CC(=O)O)NC(=O)[C@H]2CCCN2C(=O)[C@H](CCC(=O)O)NC1=O)C(C)C [3BP-3734] (Ac-VRCE[dP]DWLTWE(NH(CH2)3NH(O2Oc(DOTA)))C-NH2; linker 3-12 via mXylylene),B (t1/2 between 5.1 and 15.0 minutes),< 10 nM,79%,< 10 nM,–
"CC(C)C[C@@H]1NC(=O)[C@H](Cc2c[nH]c3ccccc23)NC(=O)[C@@H]2CCCCNC(=O)CC[C@H](NC1=O)C(=O)N[C@@H](Cc1c[nH]c3ccccc13)C(=O)N[C@@H](CO)C(=O)N[C@H](C(N)=O)CSCc1cccc(c1)CSC[C@H](NC(=O)[C@H](Cc1ccc(O)cc1)NC(=O)CN1CCN(CC(=O)O)CCN(CC(=O)O)CCN(CC(=O)O)CC1)C(=O)N[C@@H](CCC(=O)O)C(=O)N1CCC[C@@H]1C(=O)N2 [3BP-3934, DOTA-Tyr-[Cys(3MeBn)-Glu-pro-{Lys-Trp-Leu-Glu}-Trp-Ser-Cys]-NH2] ({DOTA}-YCE[dP]KWLEWSC-NH2; linker 2-11 via mXylylene; lactam 5-8)",C (t1/2 between 2.1 and 5.0 minutes),< 10 nM,>95%,< 10 nM,–
CC(C)CC(=O)N[C@@H](Cc1ccc(O)cc1)C(=O)N[C@H]1CSCc2cccc(c2)CSC[C@@H](C(N)=O)NC(=O)[C@H](CCC(=O)NCCCNC(=O)COCCOCCNC(=O)CN2CCN(CC(=O)O)CCN(CC(=O)O)CCN(CC(=O)O)CC2)NC(=O)[C@H](Cc2c[nH]c3ccccc23)NC(=O)[C@H]([C@@H](C)O)NC(=O)[C@H](CC(C)C)NC(=O)[C@H](Cc2c[nH]c3ccccc23)NC(=O)[C@H](CC(=O)O)NC(=O)[C@H]2CCCN2C(=O)[C@H](CCC(=O)O)NC1=O [3BP-3740] (Isovaleryl-YCE[dP]DWLTWE(NH(CH2)3NH(O2Oc(DOTA)))C-NH2; linker 2-11 via mXylylene),B (t1/2 between 5.1 and 15.0 minutes),< 10 nM,>95%,< 10 nM,–
CC(C)C[C@@H]1NC(=O)[C@H](Cc2c[nH]c3ccccc23)NC(=O)[C@H](CC(=O)O)NC(=O)[C@H]2CCCN2C(=O)[C@H](CCO)NC(=O)[C@@H](NC(=O)[C@H](Cc2ccc(O)cc2)NC(=O)[C@@H](NC(=O)CN2CCC(NC(=O)CN3CCN(CC(=O)O)CCN(CC(=O)O)CCN(CC(=O)O)CC3)CC2)C(C)C)CSCc2cccc(c2)CSC[C@@H](C(N)=O)NC(=O)[C@H](CO)NC(=O)[C@H](Cc2c[nH]c3ccccc23)NC(=O)[C@H]([C@@H](C)O)NC1=O [3BP-4101] ({DOTA}-[X2]VYC[hSer][dP]DWLTWSC-NH2; linker 4-13 via mXylylene),B (t1/2 between 5.1 and 15.0 minutes),< 10 nM,93%,–,< 10 nM
CC(=O)N[C@@H](CO)C(=O)N[C@@H](Cc1ccc(O)cc1)C(=O)N[C@H]1CSCc2cccc(c2)CSC[C@@H](C(N)=O)NC(=O)[C@H](CCC(=O)NCCCNC(=O)COCCOCCNC(=O)CN2CCN(CC(=O)O)CCN(CC(=O)O)CCN(CC(=O)O)CC2)NC(=O)[C@H](Cc2c[nH]c3ccccc23)NC(=O)[C@H]([C@@H](C)O)NC(=O)[C@H](CC(C)C)NC(=O)[C@H](Cc2c[nH]c3ccccc23)NC(=O)[C@H](CC(=O)O)NC(=O)[C@H]2CCCN2C(=O)[C@H](CCC(=O)O)NC1=O [3BP-3732] (Ac-SYCE[dP]DWLTWE(NH(CH2)3NH(O2Oc(DOTA)))C-NH2; linker 3-12 via mXylylene),B (t1/2 between 5.1 and 15.0 minutes),< 10 nM,>95%,< 10 nM,–
CC(C)C[C@@H]1NC(=O)[C@H](Cc2c[nH]c3ccccc23)NC(=O)[C@H](CC(=O)O)NC(=O)[C@H]2CCCN2C(=O)[C@H](CCC(=O)O)NC(=O)[C@@H](NC(=O)[C@H](Cc2ccc(O)cc2)NC(=O)CCO)CSCc2cccc(c2)CSC[C@@H](C(N)=O)NC(=O)[C@H](CCC(=O)NCCCNC(=O)CN2CCN(CC(=O)O)CCN(CC(=O)O)CCN(CC(=O)O)CC2)NC(=O)[C@H](Cc2c[nH]c3ccccc23)NC(=O)[C@H]([C@@H](C)O)NC1=O [3BP-3842] ({Propanoyl(3-OH)}-YCE[dP]DWLTWE(NH(CH2)3NHDOTA)C-NH2; linker 2-11 via mXylylene),C (t1/2 between 2.1 and 5.0 minutes),< 10 nM,>95%,< 10 nM,–
CC(C)C[C@@H]1NC(=O)[C@H](Cc2c[nH]c3ccccc23)NC(=O)[C@H](CC(=O)O)NC(=O)[C@H]2CCCN2C(=O)[C@H](CCC(=O)O)NC(=O)[C@@H](NC(=O)[C@H](CCC(=O)NC[C@H](O)[C@@H](O)[C@H](O)[C@H](O)CO)NC(=O)[C@@H](NC(=O)CN2CCC(NC(=O)CN3CCN(CC(=O)O)CCN(CC(=O)O)CCN(CC(=O)O)CC3)CC2)C(C)C)CSCc2cccc(c2)CSC[C@@H](C(N)=O)NC(=O)[C@H](CO)NC(=O)[C@H](Cc2c[nH]c3ccccc23)NC(=O)[C@H]([C@@H](C)O)NC1=O [3BP-4112] ({DOTA}-[X2]VE(NH(1-deoxy-D-glucityl))CE[dP]DWLTWSC-NH2; linker 4-13 via mXylylene),B (t1/2 between 5.1 and 15.0 minutes),< 10 nM,>95%,–,< 10 nM
CC(C)C[C@@H]1NC(=O)[C@H](Cc2c[nH]c3ccccc23)NC(=O)[C@H](CC(=O)O)NC(=O)[C@H]2CCCN2C(=O)[C@H](CCC(=O)O)NC(=O)[C@@H]2CSCc3cccc(c3)CSC[C@@H](C(N)=O)NC(=O)[C@H](CNC(=O)C[C@H](NC(=O)[C@H]3CC[C@H](CNC(=O)CN4CCN(CC(=O)O)CCN(CC(=O)O)CCN(CC(=O)O)CC4)CC3)C(=O)N2)NC(=O)[C@H](Cc2c[nH]c3ccccc23)NC(=O)[C@H]([C@@H](C)O)NC1=O [3BP-4258] ({DOTA-Trx}-DCE[dP]DWLTW[Dap]C-NH2; lactam 1-10; linker 2-11 via mXylylene),C (t1/2 between 2.1 and 5.0 minutes),< 10 nM,93%,–,< 10 nM

# — patent US20250339569A1, “CARBONIC ANHYDRASE IX LIGANDS” (priority 2021, published 2025)
